# Measured values as given in patent publication US20070003531A1, “Methods for improving immunotherapy by enhancing survival of antigen-specific cytotoxic T lymphocytes” (University of Connecticut, priority 2005, published 2007).
# What was measured:
# [1] = test system: MART-127-35 epitope specific human primary CTL; assay: AICD induction and quantitation in epitope specific primary CTL (tetramer/annexin V FACS); type: cell-based; settings: pre-incubation about 45 min, restimulation with MART-127-35 peptide pulsed T2 cells, kinase inhibitors 25 μM, z-VAD-fmk 100 μM, Fc chimeras 10 μg/ml
# Protocol: FIG. 10. Effect of external death receptor blockade and MAP kinase inhibitors on AICD in the epitope specific CTLs upon secondary encounter of the cognate epitope. The CTLs were pre-incubated at optimal concentration for about 45 min. at about 37° C. with pan caspase inhibitor z-VAD-fmk (100 μM); human Fas/Fc chimera, human TNF-RI/Fc chimera, human TRAIL-RI/Fc chimera, human TRAIL-RII/Fc chimera and human IFN-γ RI/Fc chimeric proteins (10 μg/ml); p38 kinase inhibitor SB203580, JNK inhibitor anthra[1,9-cd]pyrazol-6(2H)-one (SP600125), […] inhibitor PD98059 (25 μM). Then the pretreated as well as untreated CTLs were incubated with T2 cells either alone or loaded with peptide. About 4 hours after secondary exposure cells were stained for determining: (A) Number of tetramer^+ cells out of the CD8^+ T cells [Top panel]; number of tetramer^+/Annexin V^+ and tetramer^+/Annexin^− populations [Bottom panel]. […] (B) Effect of the MAP kinase inhibitors on IFN-γ response by the effector cells.
# AICD induction and quantitation. AICD in the human primary CTL primed and expanded specifically for melanoma epitope MART-127-35 was induced by re-exposure of the CTLs to MART-127-35 peptide (1 μg/ml) as reported previously. Staurosporine mediated death was induced by exposure of CTL to 1 μM staurosporine for 4 hr. Quantitation of AICD and the effects of various inhibitors on AICD of CTLs, were carried out by annexin-V staining followed by FACS analyses as reported previously.
# In test whether or not the epitope specific primary CTLs undergo AICD, the activated CTLs were exposed to peptide [1 μg/ml] loaded T2 cells (Effector: Target=100) at different time points of the cultures. Thereafter, the evidence of apoptosis was determined by flow cytometry with triple color staining (CD8, MART-127-35/HLA-A2 tetramer and annexin V) at different time points (4-18 h). Experiments were carried out in triplicate wells and significance was calculated by One-way analysis of variance (ANOVA) using Sigma Stat statistical software, Chicago, Ill.
# To evaluate the effect of various agents in modulating AICD, the CTLs were pre-incubated with various compounds at optimal concentration for 45 min. at 37° C. and then exposed to T2 cells alone or loaded with peptide.
# Jurkat cells = assay: Staurosporine-induced death of Jurkat cells (annexin FACS); type: cell-based, human; settings: annexin positive cells by FACS
# Protocol: (§1) FIG. 1. […] (A) Effect of the JNK inhibitor SP600125 on AICD in the MART-127-35 epitope specific CTL. Histogram represents FACS analysis of the percent of MART-127-35 epitope specific CTLs that were tetramer positive and annexin negative after restimulation with MAGE-3271-279 control peptide (M3) pulsed T2 cells or MART-127-35 peptide (M1) pulsed T2 cells either alone or re-stimulated after pre-incubation with JNK inhibitor SP600125, p38-kinase inhibitor SB203580, ERK1/2 inhibitor PD98059 or caspase-inhibitor z-VAD-fink. MAGE-3271-279. (B) JNK activation results in phosphorylation of c-Jun during AICD in CTL that is blocked by SP600125. Immunoblots show analyses of CTL extracts probed with anti-phosphor-c-Jun, anti-c-Jun, and anti-actin antibodies. […] (i) Jurkat cells were treated with PMA+ionomycin in the absence or presence of SP600125 and JNK activation (c-Jun phosphorylation) was assessed with anti-phospho-c-Jun antibody. […] (ii) Jurkat cells were treated with Staurosporine for 1 and 4 hrs in the absence (S) or presence of caspase inhibitor, z-VAD-fmk (CI), JNK inhibitor, SP600125 (SP) or ERK1/2 inhibitor PD98059 (PD) and cleavage of PARP was detected by immunoblotting, using actin as a loading control. […] Percent annexin positive cells in all samples were quantified by FACS analysis and shown below the blot
# [2] = test system: PARP cleavage in Jurkat cells; assay: PARP cleavage in staurosporine treated Jurkat cells (immunoblot); type: cell-based, human
# Protocol: as §1, with “the blot […]” for “the blot”
# [3] = test system: MART-127-35 epitope specific primary CTL; assay: DNA fragmentation analysis (agarose gel electrophoresis); type: cell-based, human; settings: 1 μM staurosporine for 4 hr
# Protocol: Standard 2% agarose gel-electrophoresis (panel i) and pulse field DNA gel electrophoresis (panel ii) of: CTL in steady state (C) and after restimulation by the cognate peptide (M1).
# DNA fragmentation analysis. DNA fragmentation was assessed by measuring single stranded nick generation, using single stranded DNA nick specific antibody (Alexis Biochemicals, CA, USA) with flow-cytometry and immunofluorescence according to published protocols. Antibody-stained cells were counterstained with 0.1 μg/ml DAPI in PBS for 10 min. Agarose gel electrophoresis was used to detect small oligosomal DNA fragmentation and pulse field electrophoresis (Bio-Rad CHEF-DRIII) was used (6 V/cm, 20-60 sec pulse overnight) to detect large-scale DNA fragmentation.
# Mart-1 primary CTLs = assay: Mitochondrial transmembrane potential (DiOC6 staining); type: cell-based, human; settings: induced by re-stimulation with cognate peptide; data not shown
# Protocol: (§2) FIG. 12. Effect of antigen specific secondary stimulation on mitochondrial transmembrane membrane potential (Δψm), pro- and anti-apoptotic protein and expression of cell surface molecules. (A) Differential effect on membrane polarization in Mart-1 primary CTLs (top panel) vs. Jurkat T cells (bottom panel). CTLs were incubated with T2 cells either alone or loaded with peptide. After overnight secondary exposure cells were stained with Mart-1 tetramer/CD8 and DiOC6. Histogram represents the fluorescence of DiOC6 in the gated antigen specific tetramer^+ population (top panel). Jurkat T cells were also analyzed for modulation of membrane potential after TCR-driven stimulation (bottom panel). Values represent the mean±SD of fluorescence intensity triplicates from one out of three separate experiment. *p<0.001 (One Way ANOVA). […] (C) Expression of different cell surface receptors for survival or death signal in antigen specific population upon secondary stimulation. Values on left upper corner represent the geometric mean of the fluorescence intensity for that particular marker when stimulated with T2/MAGE-3271-279 while that on right upper corner represent the geometric mean of the fluorescence intensity when stimulated with T2/MART-127-35.
# [4] = test system: Bcl family proteins in CTL; assay: Western blot of Bcl family pro- and anti-apoptotic proteins in CTL after secondary stimulation; type: cell-based, human
# Protocol: as §2
# Washed cell pellets were lysed in RIPA buffer and a cytosolic fraction was prepared by spinning the lysate at 15,000 rpm. Proteins (20 μg/well) were separated on 15% SDS-PAGE, transferred onto nitrocellulose filters, probed with appropriate antibodies. Antibodies for Bcl-2, phospho Bcl-2, Bim, BCI-XL, Bax, Actin were purchased from Santa-Cruz Biotechnology, Santa-Cruz, Calif. Anti-Mcl-1 antibody was purchased from BD Pharmingen, Palo Alto, Calif. Blots were developed by HRP-tagged secondary antibody (Santa-Cruz Biotechnology, Santa-Cruz, Calif.) using a chemoluminescence kit (Amersham Biosciences, Buckinghamshire, U. K.).
compound,measurement,setting,value
z-VAD-fmk,protection/rescue of CTL from AICD,[1],could not protect
same,protection/rescue of CTL from AICD,[1]; listed as z-VAD-fink,did not prevent
same,protection from staurosporine-induced death,Jurkat cells,protected
same,effect on PARP cleavage induced by staurosporine,"[2]; Jurkat cells, z-VAD-fmk 100 μM, staurosporine 1 μM",blocked
CN[C@@H]1C[C@H]2O[C@@](C)([C@@H]1OC)n1c3ccccc3c3c4c(c5c6ccccc6n2c5c31)C(=O)NC4 [staurosporine],PARP cleavage,[2]; Jurkat cells treated with staurosporine (1 μM),cleaved
same,oligosomal DNA fragmentation,[3],clearly evident
COc1cccc(-c2cc(=O)c3ccccc3o2)c1N [PD98059],protection/rescue of CTL from AICD,[1],could not protect
C[S+]([O-])c1ccc(-c2nc(-c3ccncc3)c(-c3ccc(F)cc3)[nH]2)cc1 (centres unmarked) [SB203580],level of hyper polarization of mitochondrial transmembrane potential,Mart-1 primary CTLs,decreased
same,protection/rescue of CTL from AICD,[1],could not protect
same,BCI-XL expression,[4],non-selectively up regulated
same,Bcl-2 expression,[4],non-selectively up regulated
